Active and inactive are the calls of the source. No cut-off for these calls is given here.
Experiments:
[1] = target: Sphingosine 1-phosphate receptor 1 (Homo sapiens, UniProt P21453); assay: Agonist activity at S1P1 receptor (unknown origin) expressed in CHO cells incubated for 2 hrs by HTRF-IP1 assay; format: cell-based
Homo sapiens = organism: Homo sapiens; assay: Selectivity ratio of EC50 for S1P3 receptor (unknown origin) to EC50 for S1P1 receptor (unknown origin)
[2] = target: Sphingosine 1-phosphate receptor 3 (Homo sapiens, UniProt Q99500); assay: Agonist activity at S1P3 receptor (unknown origin) expressed in CHO cells incubated for 2 hrs by HTRF-IP1 assay; format: cell-based
Sphingosine 1-phosphate receptor 3, sequence (Q99500 whole entry): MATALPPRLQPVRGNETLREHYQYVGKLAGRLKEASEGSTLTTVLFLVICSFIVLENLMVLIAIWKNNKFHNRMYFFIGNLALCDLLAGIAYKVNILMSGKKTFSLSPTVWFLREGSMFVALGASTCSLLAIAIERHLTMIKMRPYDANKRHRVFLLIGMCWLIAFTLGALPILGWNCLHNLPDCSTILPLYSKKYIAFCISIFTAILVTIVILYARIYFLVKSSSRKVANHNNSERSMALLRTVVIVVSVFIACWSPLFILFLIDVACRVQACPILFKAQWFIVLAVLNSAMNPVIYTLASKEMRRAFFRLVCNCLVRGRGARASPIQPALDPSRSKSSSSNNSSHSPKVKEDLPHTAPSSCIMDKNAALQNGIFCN

Blood [3] = assay: Drug level in Sprague-Dawley rat blood assessed as compound formation treated with SYL930 at 3 mg/kg, po measured at 0.08 to 48 hrs by LC-MS/MS analysis; format: ADME, organism-based; settings: in vivo
Rattus norvegicus = assay: Lymphopenia activity in Sprague-Dawley rat assessed as decrease in lymphocytes in peripheral blood at 3 mg/kg, po after 24 hrs by hematology analyzer; format: functional, organism-based
Blood [4] = assay: Retention time of compound in Sprague-Dawley rat blood treated with SYL930 at 3 mg/kg, po by LC-MS/MS analysis; format: ADME, organism-based; settings: in vivo
Blood [5] = assay: Retention time of compound in Sprague-Dawley rat blood treated with SYL927 at 3 mg/kg, po by LC-MS/MS analysis; format: ADME, organism-based; settings: in vivo
Blood [6] = assay: Drug level in Sprague-Dawley rat blood assessed as compound formation treated with SYL927 at 3 mg/kg, po measured at 0.08 to 48 hrs by LC-MS/MS analysis; format: ADME, organism-based; settings: in vivo
Blood [7] = assay: Drug metabolism in Sprague-Dawley rat blood assessed as formation of 2-amino-2-(2-(4'-(2-(1-hydroxyethyl)oxazol-4-yl)biphenyl-4-yl)ethyl)propane-1,3-diol hydrochloride at 3 mg/kg, po measured at 0.08 to 48 hrs by LC-MS/MS analysis; format: ADME, organism-based; settings: in vivo
Blood [8] = assay: Drug metabolism in Sprague-Dawley rat blood assessed as formation of 2-amino-2-(2-(4'-(2-(2-hydroxypropyl)oxazol-4-yl)biphenyl-4-yl)ethyl)propane-1,3-diol hydrochloride at 3 mg/kg, po measured at 0.08 to 48 hrs by LC-MS/MS analysis; format: ADME, organism-based; settings: in vivo

Sphingosine 1-phosphate receptor 1, sequence (P21453 whole entry): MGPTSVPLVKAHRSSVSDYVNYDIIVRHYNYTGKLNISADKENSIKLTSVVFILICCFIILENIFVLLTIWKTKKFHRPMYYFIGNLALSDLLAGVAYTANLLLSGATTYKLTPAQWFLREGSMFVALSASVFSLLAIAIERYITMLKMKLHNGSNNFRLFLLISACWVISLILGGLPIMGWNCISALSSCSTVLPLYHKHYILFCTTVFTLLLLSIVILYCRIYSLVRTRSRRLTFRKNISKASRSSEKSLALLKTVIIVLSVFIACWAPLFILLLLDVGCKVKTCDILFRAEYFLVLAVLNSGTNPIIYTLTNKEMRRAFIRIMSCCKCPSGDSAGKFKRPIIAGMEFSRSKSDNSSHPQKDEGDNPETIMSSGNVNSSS

SMILES | EC50 [1] | Ratio EC50 (Homo sapiens) | EC50 [2] | Drug metabolism (Blood [3]) | Activity (Rattus norvegicus) | Retention_time (Blood [4]) | Retention_time (Blood [5]) | Drug metabolism (Blood [6]) | Drug metabolism (Blood [7]) | Drug metabolism (Blood [8])
CCCc1nc(-c2ccc(-c3ccc(CCC(N)(CO)COP(=O)(O)O)cc3)cc2)co1 (stereo unspecified) | 13.3 nM | 36 | 484 nM | – | – | – | – | – | – | –
CC(O)Cc1nc(-c2ccc(-c3ccc(CCC(N)(CO)CO)cc3)cc2)co1.Cl (stereo unspecified) | 1520 nM | > 6 | > 10000 nM | metabolite_detected | Active | 13 min | – | – | – | –
CC(O)c1nc(-c2ccc(-c3ccc(CCC(N)(CO)CO)cc3)cc2)co1.Cl (stereo unspecified) | > 10000 nM | – | > 10000 nM | – | Active | – | 6.6 min | metabolite_detected | – | –
CCc1nc(-c2ccc(-c3ccc(CCC(N)(CO)CO)cc3)cc2)co1.Cl | > 10000 nM | – | > 10000 nM | – | Active | – | – | – | metabolite_detected | –
CCCc1nc(-c2ccc(-c3ccc(CCC(N)(CO)CO)cc3)cc2)co1.Cl | 1610 nM | > 6 | > 10000 nM | – | Active | – | – | – | – | metabolite_detected
CCc1nc(-c2ccc(-c3ccc(CCC(N)(CO)COP(=O)(O)O)cc3)cc2)co1 (stereo unspecified) | 7 nM | 151 | 1060 nM | – | – | – | – | – | – | –
